Activity calls are given as the source filed them. No rule for the calls is given here. Where a SMILES comes first, the peptide text is derived from it.
Target: Influenza A virus M2 proton channel (A/TW/4845/1999 H1N1)
Test: M2 proton channel binding, NMR based, influenza A virus H1N1 strain (AID 1549)
Details: NMR binding screen, M2 protein

Row | SMILES | Kd
1 | NC(=O)c1cccnc1Oc1ccccc1 | > 4 mM (inactive)
2 | COc1cc2c(cc1-c1coc3c4c(c(OC)cc3c1=O)OC(C)(C)C=C4)OCO2 | > 4 mM (inactive)
3 | Nc1cc(F)ccc1-n1ccnc1 | > 4 mM (inactive)
4 | CC(C)=CCc1c(O)cc(C)oc1=O | > 4 mM (inactive)
5 | Cc1ncc(C[n+]2csc3ccccc32)c(N)n1 | > 4 mM (inactive)
6 | CC(=O)N[C@@H](CC(=O)O)C(=O)N[C@@H](CCC(=O)O)C(=O)O (Ac-Asp-Glu-OH) | > 4 mM (inactive)
7 | Cn1c(=O)c2cn3ncccc3c2n(C)c1=O | > 4 mM (inactive)
8 | CCOC(=O)N1CCN(c2ncnc3c2cnn3C)CC1 | > 4 mM (inactive)
9 | CNC(=S)N1CCN(C(=O)c2ccco2)CC1 | > 4 mM (inactive)
10 | CC(C)CCCC(C)[C@H]1CCC2C3CC=C4CC(=O)CC[C@]4(C)C3CC[C@@]21C (stereo not given in full) | > 4 mM (inactive)
11 | C[C@@H]1CC[C@@]2(OC1)O[C@H]1CC3C4CC[C@H]5C[C@@H](O)CC[C@]5(C)C4CC[C@]3(C)[C@H]1[C@@H]2C (stereo not given in full) | > 4 mM (inactive)
12 | Nc1nnc(Cc2ccc(Cl)cc2)s1 | > 4 mM (inactive)
13 | Cc1ccn(S(=O)(=O)c2ccc(C(C)(C)C)cc2)n1 | > 4 mM (inactive)
14 | O=c1c2ccccc2oc2ccc(O)cc12 | > 4 mM (inactive)
15 | Nc1cc(=O)[nH]c(=S)n1-c1ccc(F)cc1 | > 4 mM (inactive)
16 | COC(=O)c1cc(-c2c[nH]c3ccccc23)n[nH]1 | > 4 mM (inactive)
17 | O=C(c1ccccc1)N1CCOCC1 | > 4 mM (inactive)
18 | O=C(CS(=O)(=O)c1ccccc1)Nc1nccs1 | > 4 mM (inactive)
19 | Cc1nn(-c2ccccc2)c(Cl)c1C(N)=O | > 4 mM (inactive)
20 | CC[C@@]1(O)C[C@H](O[C@H]2C[C@H](N(C)C)[C@H](O)[C@H](C)O2)c2c(cc3c(c2O)C(=O)c2c(O)cccc2C3=O)[C@H]1C(=O)OC | > 4 mM (inactive)
21 | Nc1cc(C(=O)N2CCCC2)cc(C(=O)N2CCCC2)c1 | > 4 mM (inactive)
22 | CC(=O)O[C@H]1CC[C@@]2(C)C(C[C@@H](OC(C)=O)[C@@]3(C)C4=CC(=O)O[C@@H](c5ccoc5)[C@]4(C)CCC23)C1(C)C (stereo not given in full) | > 4 mM (inactive)
23 | NC1=NC(=O)/C(=C/c2ccccc2[N+](=O)[O-])S1 | > 4 mM (inactive)
24 | CC(C)=NNC(=O)C(=O)NC(C)(C)C | > 4 mM (inactive)

Row | SMILES | Kd
25 | C(=Nn1cnnc1)c1ccccc1 | > 4 mM (inactive)
26 | Cc1cc(C)n2nc(SCC(=O)c3ccccc3)nc2n1 | > 4 mM (inactive)
27 | CCOc1ccc2nc(NS(C)(=O)=O)sc2c1 | > 4 mM (inactive)
28 | COc1ccc(N2C(=O)CCC2=O)c(OC)c1 | > 4 mM (inactive)
29 | O=C(c1ccccc1)c1cncc(Br)c1 | > 4 mM (inactive)
30 | O=C1NC(=O)/C(=C\c2ccco2)S1 | > 4 mM (inactive)
31 | Cc1c(C(=O)NC2=NCCS2)oc2ccccc12 | > 4 mM (inactive)
32 | Cc1nc2ccc(C(=O)N3CCSCC3)cc2s1 | > 4 mM (inactive)
33 | NC(=O)c1ccc(N2C(=O)C=CC2=O)cc1Cl | > 4 mM (inactive)
34 | O=C1c2ccc(F)cc2C(=O)N1CO | > 4 mM (inactive)
35 | Cc1noc(C)c1C(=O)NC1=NCCS1 | > 4 mM (inactive)
36 | Cc1cc(-c2ccccc2)nc2cc(C(N)=O)nn12 | > 4 mM (inactive)
37 | CN(C)CCNC(CC(=O)Nc1ccccc1)C(=O)O (stereo not given) | > 4 mM (inactive)
38 | CN1CN(Cc2ccccc2)CN/C1=N/[N+](=O)[O-] | > 4 mM (inactive)
39 | O=C1NCCCC1C(=O)N/N=C/c1ccccc1 (stereo not given) | > 4 mM (inactive)
40 | O=C1C2C3C=CC(C3)C2C(=O)N1c1ccccn1 (stereo not given) | > 4 mM (inactive)
41 | Oc1cc(O)c2c(c1)O[C@H](c1ccc(O)c(O)c1)[C@@H](O)C2 | > 4 mM (inactive)
42 | NC(=O)C1(S(=O)(=O)c2ccccc2)CC1 | > 4 mM (inactive)
43 | CC(=O)Nc1ccc(N(C)C(C)=O)cc1 | > 4 mM (inactive)
44 | O=C(OCc1c(F)cccc1Cl)c1cnccn1 | > 4 mM (inactive)
45 | COCc1nc(-c2cc(Br)ccc2OC)no1 | > 4 mM (inactive)
46 | COc1ccc2c(c1)C(NC(C)=O)C(=O)N2C (stereo not given) | > 4 mM (inactive)
47 | Cc1nnc(SCc2ccon2)n1-c1ccccc1 | > 4 mM (inactive)
48 | C(=C\c1ccccc1)/C=N/n1cnnc1 | > 4 mM (inactive)

Row | SMILES | Kd
49 | Cc1scc(C(=O)Nc2ccon2)c1-c1ccccc1 | > 4 mM (inactive)
50 | Cc1nnc(SCC(=O)N2CCc3ccccc32)s1 | > 4 mM (inactive)
51 | CCOC(=O)c1cc(C)[nH]n1 | > 4 mM (inactive)
52 | NC(=O)Cc1nc2ccccc2[nH]1 | > 4 mM (inactive)
53 | O=C(O)c1ccc2c(c1)OCCCO2 | > 4 mM (inactive)
54 | NC(=O)CSc1nnnn1-c1ccccc1 | > 4 mM (inactive)
55 | Nc1cccc(S(N)(=O)=O)c1 | > 4 mM (inactive)
56 | NC1=C(c2ccccc2)C(=O)c2ccccc21 | > 4 mM (inactive)
57 | O=C(Nc1ccccc1)NC1CCS(=O)(=O)C1 (stereo not given) | > 4 mM (inactive)
58 | O=C(Nc1nncs1)C1(c2ccccc2)CCCC1 | > 4 mM (inactive)
59 | C=C1C(=O)OC2CC1C(OC(C)=O)C/C(C)=C/CC/C(C)=C/CC[C@]2(C)O (stereo not given in full) | > 4 mM (inactive)
60 | Cc1n[nH]c(=O)c2ncn(C)c12 | > 4 mM (inactive)
61 | CCSc1nc(=S)n(CC)c(C)c1C(C)=O | > 4 mM (inactive)
62 | Cc1csc(NC(=O)c2cccs2)n1 | > 4 mM (inactive)
63 | O=C(CSc1ncn[nH]1)c1ccc2c(c1)OCCO2 | > 4 mM (inactive)
64 | NC(=O)c1cccc(Cl)n1 | > 4 mM (inactive)
65 | CP(C)(=O)c1cccc(C(=O)O)c1 | > 4 mM (inactive)
66 | O=C(O)c1ccc2occc2c1 | > 4 mM (inactive)
67 | C=CCSCC=C | > 4 mM (inactive)
68 | O=C(NN1C(=O)c2ccccc2C1=O)c1cccs1 | > 4 mM (inactive)
69 | COC(=O)NCc1cc2cc(Cl)ccc2[nH]1 | > 4 mM (inactive)
70 | Cn1nnc2cc(CO)ccc21 | > 4 mM (inactive)
71 | Cn1cccc1C=C1C(=O)NC(=S)NC1=O | > 4 mM (inactive)
72 | COC(=O)C1[C@H]2C[C@H]3c4[nH]c5ccccc5c4CCN3C[C@@H]2CC[C@@H]1O (stereo not given in full) | > 4 mM (inactive)

Row | SMILES | Kd
73 | Nc1nc(=S)n2c(n1)oc1ccccc12 | > 4 mM (inactive)
74 | O=C1NC(=Nc2ccccc2)S/C1=C/c1cccnc1 | > 4 mM (inactive)
75 | COc1cccc(C(=O)Nc2c(C)n[nH]c2C)c1 | > 4 mM (inactive)
76 | NC1Cc2ccccc2C1 | > 4 mM (inactive)
77 | O=C(O)CS(=O)(=O)c1ccccc1[N+](=O)[O-] | > 4 mM (inactive)
78 | CCOC(=O)c1ccc(F)c(F)c1 | > 4 mM (inactive)
79 | O=[n+]1c2c(n([O-])c3ccccc31)CCCC2 | > 4 mM (inactive)
80 | COc1ccc(Cl)c(S(=O)(=O)N2CCCC2)c1 | > 4 mM (inactive)
81 | CC(=O)OC1CCC2(C)C(=CC=C3C2CCC2(C)C3CCC2C(C)/C=C/C(C)C(C)C)C1(C)C (stereo not given) | > 4 mM (inactive)
82 | O=C1C2=C(SCCS2)C(=O)N1CCCO | > 4 mM (inactive)
83 | Cc1ncoc1C(=O)Nc1ccccc1C(N)=O | > 4 mM (inactive)
84 | Cc1cc(C)c(NC(=O)CN2CCC(O)CC2)c(C)c1 | > 4 mM (inactive)
85 | COc1ccc(/C=C2/NC(=S)NC2=O)cc1 | > 4 mM (inactive)
86 | CC(=O)Nc1nnc(-c2ccncc2)s1 | > 4 mM (inactive)
87 | Cn1nnc2cc(C(=O)Nc3cccnc3)ccc21 | > 4 mM (inactive)
88 | O=c1cc(-c2ccc(O)cc2)oc2cc(O)cc(O)c12 | > 4 mM (inactive)
89 | CCOc1ccc(C)cc1S(=O)(=O)n1ccnc1 | > 4 mM (inactive)
90 | Cc1noc(C)c1C(=O)NCc1cccs1 | > 4 mM (inactive)
91 | Cc1nc(-c2cc(CO)no2)cs1 | > 4 mM (inactive)
92 | O=S1(=O)CCC(NC(=S)Nc2ccc(O)cc2)C1 (stereo not given) | > 4 mM (inactive)
93 | C[C@H]1C[C@@H](O)[C@]2(O)[C@@]13CC(=O)OC[C@@]2(C)[C@](C)(O)C(=O)C3 | > 4 mM (inactive)
94 | Cn1c(NCc2ccccc2O)nc2ccccc21 | > 4 mM (inactive)
95 | NC(=O)CNC(=O)c1ccc2ccccc2n1 | > 4 mM (inactive)
96 | OCC1CCN(c2ncccn2)CC1 | > 4 mM (inactive)

Row | SMILES | Kd
97 | Cc1cccc(C)c1NC(=O)/C=C/C(=O)O | > 4 mM (inactive)
98 | O=C(Nc1cccc(Cl)c1)c1cnn2cccnc12 | > 4 mM (inactive)
99 | COc1ccc(C)cc1-n1c(-c2ccncc2)n[nH]c1=S | > 4 mM (inactive)
100 | CNC(C)[C@H](O)c1ccccc1 (stereo not given in full) | > 4 mM (inactive)
101 | COC(=O)c1cnccc1C(F)(F)F | > 4 mM (inactive)
102 | CC(=O)c1ccc(NS(=O)(=O)c2cccc(C)c2)cc1 | > 4 mM (inactive)
103 | O=C1CSC(=Nc2ccccc2[N+](=O)[O-])N1 | > 4 mM (inactive)
104 | CCOC(=O)c1c(C)nc2ccccn12 | > 4 mM (inactive)
105 | Nc1ccc(OC(F)(F)F)cc1 | > 4 mM (inactive)
106 | CCOC12NC(=O)CC(=O)N1C(c1ccccc1)=CS2 (stereo not given) | > 4 mM (inactive)
107 | O=C(NCCO)c1cc2ccccc2cc1O | > 4 mM (inactive)
108 | CN(C)CC(O)C1CCOC(C)(C)C1 (stereo not given) | > 4 mM (inactive)
109 | c1ccc(-c2nsc(N3CCCNCC3)n2)cc1 | > 4 mM (inactive)
110 | CC(=O)CC1(O)C(=O)Nc2ccccc21 (stereo not given) | > 4 mM (inactive)
111 | Cc1nnc(SCC(=O)N2CCCCC2)s1 | > 4 mM (inactive)
112 | COC(=O)CSc1nc(N)cc(=O)[nH]1 | > 4 mM (inactive)
113 | COC(=O)Nc1ccc2ncn(C)c(=O)c2c1 | > 4 mM (inactive)
114 | Cn1cnnc1SCC(=O)Nc1ccccc1 | > 4 mM (inactive)
115 | CCC(=O)Nc1cc(C(C)C)c(O)cc1C | > 4 mM (inactive)
116 | NS(=O)(=O)c1ccc2c(c1)OCCO2 | > 4 mM (inactive)
117 | NS(=O)(=O)c1ccc(N=C2NC(=O)CS2)cc1 | > 4 mM (inactive)
118 | O=C(O)c1cn(-c2ccccc2)nc1-c1cccnc1 | > 4 mM (inactive)
119 | O=C1NCCCC1C(=O)N1CCCCC1 (stereo not given) | > 4 mM (inactive)
120 | CCCc1cc(=O)[nH]c2nnc(SCC(C)=O)n12 | > 4 mM (inactive)
